Measurements from patent US20240390434A1, “PROBIOTIC ENHANCERS AND USES THEREOF” (Blis Technologies Limited, priority 2021, published 2024).

Legend:
Assay type in all cases: cell-based
[1] = tested on: indicator bacterial test strains; experiment: Inhibitory activity of freeze dried raw ingredient powder, M18; conditions: galactose 0.5% w/w; raffinose 2.5% w/w; or combination
Method: (§1) Method: The amount of raffinose and galactose used was calculated based on the volume of the area of the producer streak, (which was calculated to be 4.25 g) to allow for the absorption of the saccharides into the agar. Based on this, amount of 0.021 g (i.e. 0.5% w/w galactose of 4.25 g agar volume) of galactose, 0.11 g (i.e 2.5% w/w) of raffinose and the combination of galactose (0.5% w/w) and raffinose (2.5% w/w) (0.13 g total) were weighed into sterile containers. K12 and/or M18 raw ingredient were suspended and diluted with sterile distilled water to a concentration of 1-2×10^6 cfu/100 μl. Then, […] of K12 only, M18 only, and K12±M18 suspensions were spread as a 1 cm streak down the middle of a CABCa agar plate using a sterile spreader. […] Bacterial growth was then removed using a microscope slide, and the pH of the agar in the producer streak area was measured and adjusted to pH 6.5-7.5 using 0.5M sodium carbonate (pH 11) before surface sterilizing the plates with chloroform vapour. […] Zones of inhibition for each test organism were then measured in mm using a ruler. The amount of raffinose and galactose to be used was calculated based on the volume of the area of the producer streak, (which was calculated to be 4.25 g) to allow for absorption into the agar.

[2] = tested on: representative microorganisms from skin, dental, oral, ENTR diseases; experiment: Dose response assay with dairy free K12 or M18; conditions: 2.5% w/w raffinose vs equal weight percentage of saccharides; pH adjusted
Method: CABCa agar plates containing various concentrations of saccharide were prepared according to the methods described in Method 1. Producer strains were transferred from stock agar plates into 900 μL THB using a fresh cotton swab. A plastic spread plater was cut to approximately 1.2 cm width and then dipped into ethanol and left to air dry to ensure sterility. A 100 μL sample of the producer strain suspension was then dispensed onto the agar surface in a straight line running diametrically across the agar surface in (approximately) 20 μL spots. The spots were spaced approximately 1.5 cm apart from each other. The plastic spreader was then used to evenly distribute the spots across the agar surface in a 1.5 cm wide strip. This step was taken to ensure an even producer streak was inoculated onto the agar surface and provided an approximate measure of the initial inoculum concentration. Separate plastic spreaders were used for samples containing different producer strains. The samples were left to soak into the agar surface until there was no visible liquid remaining on the agar surface (approximately 20 minutes). Following producer streak preparations, the deferred antagonism assay protocol was followed as per Method 2. Results were recorded by measuring the size of the zone of inhibition (ZOI) in mm. […]

S. pyogenes M76 = experiment: Dose response deferred antagonism assay, producer K12
Method: (§2) 1-2 producer strain colonies were transferred from a stock plate into 900 μL of suspension solution using a fresh cotton swab. Following this, suspensions were vortexed, and a sample was inoculated onto solid culture media using a fresh cotton swab. The inoculation was a streak that runs diametrically across the agar plate in a 1.5 cm wide strip. The plate was then incubated. Following incubation all visible colonies were removed by swabbing them from the agar surface. The plates were then treated with chloroform by dispensing 2 ml of chloroform onto 4 cm×4 cm piece of cloth and sealing the inverted agar plate on top for 30 minutes. The plates were then air dried for 30 minutes following chloroforming. 1-2 indicator strain colonies were then transferred from a stock plate into complementary suspension solution. The suspensions were then vortexed, and a sample was inoculated onto the same agar surface. These samples were streaked in a perpendicular direction to the initial producer streak.
(§3) Each indicator streak was prepared with fresh a suspension containing cells from a corresponding stock plate containing the indicator strain of interest. Indicator strains suspension samples were transferred using a fresh cotton swab. Results were measured by qualitatively reviewing the subsequent (if any) sizes of the zones of inhibition (ZOI) of indicator strain colony growth. A positive result is when there is a distinctive reduction or complete inhibition of indicator colony growth on the culture medium.
(§4) CABCa agar plates containing various concentrations of saccharide were prepared according to the methods described in Method 1. Producer strains were transferred from stock agar plates into 900 μL THB using a fresh cotton swab. A plastic spread plater was cut to approximately 1.2 cm width and then dipped into ethanol and left to air dry to ensure sterility. A 100 μL sample of the producer strain suspension was then dispensed onto the agar surface in a straight line running diametrically across the agar surface in (approximately) 20 μL spots. The spots were spaced approximately 1.5 cm apart from each other. The plastic spreader was then used to evenly distribute the spots across the agar surface in a 1.5 cm wide strip. This step was taken to ensure an even producer streak was inoculated onto the agar surface and provided an approximate measure of the initial inoculum concentration. Separate plastic spreaders were used for samples containing different producer strains. The samples were left to soak into the agar surface until there was no visible liquid remaining on the agar surface (approximately 20 minutes). Following producer streak preparations, the deferred antagonism assay protocol was followed as per Method 2. Results were recorded by measuring the size of the zone of inhibition (ZOI) in mm.
(§5) The results presented in FIG. 1 and FIG. 2 illustrate the change in ear, nose, and throat (ENT) microorganism indicator strain zone of inhibition sizes. When K12 was cultured in the presence of various concentrations of galactose the ZOI sizes for several of the ENTR indicator strains increased markedly from the control condition (FIG. 1). M. catarrhalis TW1 and TW2 display similar changes in the ZOI sizes across the various concentrations of galactose. The change in TW1 ZOI size peaks at 1.5% galactose(w/v) (12 mm) then decreases at 2.0% galactose (w/v), whereas the change of TW2 ZOI size peaks at 2.0% galactose (w/v) (11 mm). The change in L. lactis T-21 ZOI sizes trend upwards relative to the concentration of galactose present in the culture medium.

M. catarrhalis TW2 = experiment: as above; conditions: peak
Method: as §2, §3, §4, §5

L. lactis T-21 = experiment: as above
Method: as §2, §3, §4, §5

M. catarrhalis TW1 [3] = experiment: Deferred antagonism assay, producer S. salivarius M18
Method: as §2, §3, §4
(§6) A dose response assay was carried out according to method 3 above, except a 1.2 cm streak was used. For the individual saccharide testing the pH of the producer streak was adjusted after the growth of producer to change the acidic conditions.

[4] = tested on: S. pyogenes strain as well as other microorganisms; experiment: Inhibitory activity of M18 grown in M17 broth with saccharides; conditions: saccharide 0.83% or 2.5% w/v, vs control
M. catarrhalis TW1 [5] = experiment: Deferred antagonism assay, producer S. salivarius K12
Method: as §2, §3, §4, §6

[6] = tested on: indicator bacterial test strains; experiment: Inhibitory activity of freeze dried raw ingredient powder, K12 and M18 combination; conditions: galactose 0.5% w/w; raffinose 2.5% w/w; or combination
Method: as §1

OC[C@H]1O[C@H](OC[C@H]2O[C@H](O[C@]3(CO)O[C@H](CO)[C@@H](O)[C@@H]3O)[C@H](O)[C@@H](O)[C@@H]2O)[C@H](O)[C@@H](O)[C@H]1O [Raffinose, D-(+) Raffinose pentahydrate]
inhibitory activity of freeze-dried raw ingredient powder of M18 [1]: induced the inhibitory activity | inhibitory action of dairy free K12 or M18 [2]: enhanced inhibitory action | change in ZOI size for S. pyogenes M76 (S. pyogenes M76; 1.5% raffinose (w/v), peak): 13 mm | change in ZOI size M. catarrhalis TW2 (M. catarrhalis TW2; 2.0% (w/v) raffinose): 13 mm | change in L. lactis ZOI size (L. lactis T-21; 0.1% raffinose (w/v)): 15 mm | change in L. lactis ZOI size (L. lactis T-21; 1.0% raffinose (w/v)): 16 mm | change in zone of inhibition size M. catarrhalis TW1 (M. catarrhalis TW1 [3]; 1.5% (w/v) raffinose): 31 mm | Zone of inhibition M. catarrhalis TW1 (M. catarrhalis TW1 [3]; Raffinose 1.7% wt): 7 mm | Zone of inhibition M. catarrhalis TW1 (M. catarrhalis TW1 [3]; Raffinose 1.7% wt, pH adjusted): 0 mm | Zone of inhibition M. catarrhalis TW1 (M. catarrhalis TW1 [3]; Raffinose 2.5% wt): 17 mm | Zone of inhibition M. catarrhalis TW1 (M. catarrhalis TW1 [3]; Raffinose 2.5% wt, pH adjusted): 0 mm | Zone of inhibition M. catarrhalis TW1 (M. catarrhalis TW1 [3]; Raffinose 3.3% wt): 0 mm | Zone of inhibition M. catarrhalis TW1 (M. catarrhalis TW1 [3]; Raffinose 3.3% wt, pH adjusted): 0 mm | Zone of inhibition M. catarrhalis TW1 (M. catarrhalis TW1 [3]; Raffinose 5% wt): 15 mm | Zone of inhibition M. catarrhalis TW1 (M. catarrhalis TW1 [3]; Raffinose 5% wt, pH adjusted): 0 mm | Zone of inhibition M. catarrhalis TW1 (M. catarrhalis TW1 [3]; Raffinose 10% wt): 0 mm | Zone of inhibition M. catarrhalis TW1 (M. catarrhalis TW1 [3]; Raffinose 10% wt, pH adjusted): 0 mm | inhibitory activity of M18 grown in presence of saccharide [4]: greater inhibitory activity | change in ZOI size M. catarrhalis TW1 (M. catarrhalis TW1 [5]; 2.0% (w/v) raffinose, peak): 13 mm | Zone of inhibition M. catarrhalis TW1 (M. catarrhalis TW1 [5]; Raffinose 1.7% wt): 0 mm | Zone of inhibition M. catarrhalis TW1 (M. catarrhalis TW1 [5]; Raffinose 1.7% wt, pH adjusted): 0 mm | Zone of inhibition M. catarrhalis TW1 (M. catarrhalis TW1 [5]; Raffinose 2.5% wt): 10 mm | Zone of inhibition M. catarrhalis TW1 (M. catarrhalis TW1 [5]; Raffinose 2.5% wt, pH adjusted): 0 mm | Zone of inhibition M. catarrhalis TW1 (M. catarrhalis TW1 [5]; Raffinose 3.3% wt): 0 mm | Zone of inhibition M. catarrhalis TW1 (M. catarrhalis TW1 [5]; Raffinose 3.3% wt, pH adjusted): 0 mm | Zone of inhibition M. catarrhalis TW1 (M. catarrhalis TW1 [5]; Raffinose 5% wt): 5 mm | Zone of inhibition M. catarrhalis TW1 (M. catarrhalis TW1 [5]; Raffinose 5% wt, pH adjusted): 0 mm | Zone of inhibition M. catarrhalis TW1 (M. catarrhalis TW1 [5]; Raffinose 10% wt): 6 mm | Zone of inhibition M. catarrhalis TW1 (M. catarrhalis TW1 [5]; Raffinose 10% wt, pH adjusted): 0 mm | inhibitory activity of freeze-dried raw ingredient powder of K12 and M18 combination [6]: induced the inhibitory activity

O=C[C@H](O)[C@@H](O)[C@@H](O)[C@H](O)CO [Galactose, D-galactose]
inhibitory activity of freeze-dried raw ingredient powder of M18 [1]: induced the inhibitory activity | inhibitory action of dairy free K12 or M18 [2]: enhanced inhibitory activity | change in M76 ZOI size (S. pyogenes M76; between 1.5% and 2.0% galactose): 11 mm | change of TW2 ZOI size (M. catarrhalis TW2; 2.0% galactose (w/v)): 11 mm | change in L. lactis T-21 ZOI sizes (L. lactis T-21; relative to the concentration of galactose): trend upwards | increase in zone of inhibition M. catarrhalis TW1 (M. catarrhalis TW1 [3]; 1.0% (w/v) galactose): 12 mm | increase in zone of inhibition M. catarrhalis TW1 (M. catarrhalis TW1 [3]; 1.5% (w/v) galactose): 23 mm | inhibitory activity of M18 grown in presence of saccharide [4]: greater inhibitory activity | change in TW1 ZOI size (M. catarrhalis TW1 [5]; 1.5% galactose (w/v), peak): 12 mm | inhibitory activity of freeze-dried raw ingredient powder of K12 and M18 combination [6]: induced the inhibitory activity
